This assay deals with NF-kB transcriptional activity in HEK-293-NF-kB-Luc cell line overexpressing MALT1. The assay can be described thus: NF-kB reporter assay (luciferase, MALT1 stably overexpressed). It counts as cell-based. Conditions: Homo sapiens, 24 h, HEK-293-NF-kB-Luc cells stably overexpressing MALT1, 24 h treatment, Bright Glo luminescence; read-out: NF-kB inhibition IC50. As to the method:
The NF-⇐B reporter assay was performed to screen for MALT1 inhibition mediated reduction in the NF-⇐B transcriptional activity. For this purpose, MALT1 was stably overexpressed in HEK-293—NF-⇐B-Luc cell line. Cells were seeded in poly-D-lysine coated 96-well plates in a culture medium containing the selection markers (DMEM+10% FBS+50 |g/ml Hygromycin+500 |g/ml Geniticin) and allowed to adhere overnight. On the following day, cells were treated with various concentrations of test compounds for 24 h. After 24 h of treatment with test compounds, media was removed from each well and Bright Glo™ (Promega, USA) substrate was added and incubated for further 10 min at ambient temperature. Luminescence was measured for detection of NF-⇐B reporter activity. RLUs (Relative Luminescence Units) were directly proportional to the NF-⇐B activity. % inhibition of NF-⇐B activity was calculated relative to the samples containing media with 0.1% DMSO alone as per the following formula
On to `CCOC(C)c1c(NC(=O)Nc2ccc(-n3nccn3)c(Cl)c2)cnc2sc(C)nc12` (racemic) [Compound 161, 1-(3-Chloro-4-(2H-1,2,3-triazol-2-yl)phenyl)-3-(7-(1-ethoxyethyl)-2-methylthiazolo[5,4-b]pyridin-6-yl)urea], for which the IC50 was in the range of 1 to 100 nM.
On to `COc1nc(-n2ccnn2)c(Cl)cc1NC(=O)Nc1cnc2sc(C)nc2c1C(C)OC` (single isomer, unassigned) [Compound 91a, 1-(5-Chloro-2-methoxy-6-(1H-1,2,3-triazol-1-yl)pyridin-3-yl)-3-(7-(1-methoxyethyl)-2-methylthiazolo[5,4-b]pyridin-6-yl)urea], for which the IC50 lay within 1 to 100 nM.
In the case of `COC(C)(c1c(NC(=O)Nc2cnc(-n3nccn3)c(C(F)(F)F)c2)cnc2sc(C)nc12)C1CC1` (single isomer, unassigned) [Compound 93a, 1-(6-(2H-1,2,3-triazol-2-yl)-5-(trifluoromethyl)pyridin-3-yl)-3-(7-(1-cyclopropyl-1-methoxyethyl)-2-methylthiazolo[5,4-b]pyridin-6-yl)urea], the IC50 lay within 1 to 100 nM.
For `COc1ccc(NC(=O)Nc2cnc3sc(C)nc3c2C(C)OC)cc1Cl` (single isomer, unassigned) [Compound 118b, 1-(3-chloro-4-methoxyphenyl)-3-(7-(1-methoxyethyl)-2-methylthiazolo[5,4-b]pyridin-6-yl)urea], the IC50 lay in the range of 101 to 500 nM.
Turning to `COc1ncc(Cl)cc1NC(=O)Nc1cnc2sc(C)nc2c1C(C)OC` (single isomer, unassigned) [Compound 120b, 1-(5-chloro-2-methoxypyridin-3-yl)-3-(7-(1-methoxyethyl)-2-methylthiazolo[5,4-b]pyridin-6-yl)urea], the IC50 was 1 to 100 nM.
The result for `COC(C)c1c(NC(=O)Nc2cnc(-n3ccnn3)c(Cl)c2)cnc2sc(C)nc12` (single isomer, unassigned) [Compound 123b, 1-(5-Chloro-6-(1H-1,2,3-triazol-1-yl)pyridin-3-yl)-3-(7-(1-methoxyethyl)-2-methylthiazolo[5,4-b]pyridin-6-yl)urea] reads 1 to 100 nM; that for `CCC(OC)c1c(NC(=O)Nc2cnc(OC)c(Cl)c2)cnc2sc(C)nc12` (single isomer, unassigned) [Compound 127a, 1-(5-Chloro-6-methoxypyridin-3-yl)-3-(7-(1-methoxypropyl)-2-methylthiazolo[5,4-b]pyridin-6-yl)urea], 1 to 100 nM.
For the molecule `COC(C)c1c(NC(=O)Nc2cncc(C#N)c2)cnc2sc(C)nc12` (single isomer, unassigned) [Compound 129b, 1-(5-Cyanopyridin-3-yl)-3-(7-(1-methoxyethyl)-2-methylthiazolo[5,4-b]pyridin-6-yl)urea], the IC50 fell in the range of 1 to 100 nM.
The same measure for `COC(C)c1c(NC(=O)Nc2ccnc(C(F)(F)F)c2)cnc2sc(C)nc12` (single isomer, unassigned) [Compound 130b, 1-(7-(1-Methoxyethyl)-2-methylthiazolo[5,4-b]pyridin-6-yl)-3-(2-(trifluoromethyl)pyridin-4-yl)urea]: 1 to 100 nM; for `COc1cc(-n2ccnn2)c(Cl)cc1NC(=O)Nc1cnc2sc(C)nc2c1C(C)OC` (single isomer, unassigned) [Compound 132b, 1-(5-Chloro-2-methoxy-4-(1H-1,2,3-triazol-1-yl)phenyl)-3-(7-(1-methoxyethyl)-2-methylthiazolo[5,4-b]pyridin-6-yl)urea]: 1 to 100 nM.
The same measure for `COC(C)c1c(NC(=O)Nc2cc(C(F)(F)F)cn(C)c2=O)cnc2sc(C)nc12` (single isomer, unassigned) [Compound 133b, 1-(7-(1-methoxyethyl)-2-methylthiazolo[5,4-b]pyridin-6-yl)-3-(1-methyl-2-oxo-5-(trifluoromethyl)-1,2-dihydropyridin-3-yl)urea]: 501 to 1500 nM; for `COc1ncc(NC(=O)Nc2cnc3sc(C)nc3c2C2CCCO2)cc1Cl` (single isomer, unassigned) [Compound 135a, 1-(5-Chloro-6-methoxypyridin-3-yl)-3-(2-methyl-7-(tetrahydrofuran-2-yl)thiazolo[5,4-b]pyridin-6-yl)urea]: 1 to 100 nM.
Regarding `Cc1nc2c(C3CCCO3)c(NC(=O)Nc3ccc(-n4nccn4)c(Cl)c3)cnc2s1` (single isomer, unassigned) [Compound 137a, 1-(3-Chloro-4-(2H-1,2,3-triazol-2-yl)phenyl)-3-(2-methyl-7-(tetrahydrofuran-2-yl)thiazolo[5,4-b]pyridin-6-yl)urea], the IC50 was 1 to 100 nM.
As for `Cc1nc2c(C3CCCCO3)c(NC(=O)Nc3cnc(-n4nccn4)c(Cl)c3)cnc2s1` (single isomer, unassigned) [Compound 140b, 1-(5-Chloro-6-(2H-1,2,3-triazol-2-yl)pyridin-3-yl)-3-(2-methyl-7-(tetra hydro-2H-pyran-2-yl)thiazolo[5,4-b]pyridin-6-yl)urea], the IC50 was 101 to 500 nM.
For the molecule `COC(C)c1c(NC(=O)Nc2cnc(-n3ccnn3)c(C(F)(F)F)c2)cnc2sc(C)nc12` (single isomer, unassigned) [Compound 141a, 1-(6-(1H-1,2,3-Triazol-1-yl)-5-(trifluoromethyl)pyridin-3-yl)-3-(7-(1-methoxyethyl)-2-methylthiazolo[5,4-b]pyridin-6-yl)urea], the IC50 was 1 to 100 nM.
The same measure for `CCC(OC)c1c(NC(=O)Nc2cnc(-n3nccn3)c(C(F)(F)F)c2)cnc2sc(C)nc12` (single isomer, unassigned) [Compound 146a, 1-(6-(2H-1,2,3-Triazol-2-yl)-5-(trifluoromethyl)pyridin-3-yl)-3-(7-(1-methoxypropyl)-2-methylthiazolo[5,4-b]pyridin-6-yl)urea]: 1 to 100 nM; for `COC(C)c1c(NC(=O)Nc2cnc(-c3ncc(C)o3)c(Cl)c2)cnc2sc(C)nc12` (single isomer, unassigned) [Compound 148b, 1-(5-Chloro-6-(5-methyloxazol-2-yl)pyridin-3-yl)-3-(7-(1-methoxyethyl)-2-methylthiazolo[5,4-b]pyridin-6-yl)urea]: 1 to 100 nM; for `COC(C)c1c(NC(=O)Nc2cnc(OC(F)F)c(Cl)c2)cnc2sc(C)nc12` (single isomer, unassigned) [Compound 149a, 1-(5-Chloro-6-(difluoromethoxy)pyridin-3-yl)-3-(7-(1-methoxyethyl)-2-methylthiazolo[5,4-b]pyridin-6-yl)urea]: 1 to 100 nM.
With `COC(c1c(NC(=O)Nc2cnc(-n3nccn3)c(Cl)c2)cnc2sc(C)nc12)C1CC1` (single isomer, unassigned) [Compound 154a, 1-(5-Chloro-6-(2H-1,2,3-triazol-2-yl)pyridin-3-yl)-3-(7-(cyclopropyl(methoxy)methyl)-2-methylthiazolo[5,4-b]pyridin-6-yl)urea], the IC50 fell in the range of 1 to 100 nM.
The same measure for `COc1nc(-n2nccn2)c(Cl)cc1NC(=O)Nc1cnc2sc(C)nc2c1C(OC)C1CC1` (single isomer, unassigned) [Compound 156a, 1-(5-Chloro-2-methoxy-6-(2H-1,2,3-triazol-2-yl)pyridin-3-yl)-3-(7-(cyclopropyl(methoxy)methyl)-2-methylthiazolo[5,4-b]pyridin-6-yl)urea]: 1 to 100 nM.
For `CCC(C)c1c(NC(=O)Nc2cnc(-n3nccn3)c(Cl)c2)cnc2sc(C)nc12` (single isomer, unassigned) [Compound 157a, 1-(7-(sec-Butyl)-2-methylthiazolo[5,4-b]pyridin-6-yl)-3-(5-chloro-6-(2H-1,2,3-triazol-2-yl)pyridin-3-yl)urea], the IC50 lay within 1 to 100 nM.
Regarding `CCOC(C)c1c(NC(=O)Nc2cc(Cl)c(-n3nccn3)nc2OC)cnc2sc(C)nc12` (single isomer, unassigned) [Compound 166b, 1-(5-Chloro-2-methoxy-6-(2H-1,2,3-triazol-2-yl)pyridin-3-yl)-3-(7-(1-ethoxyethyl)-2-methylthiazolo[5,4-b]pyridin-6-yl)urea], the IC50 is 1 to 100 nM.
As for `COC(C)c1c(NC(=O)Nc2ccc(-c3ncccn3)c(Cl)c2)cnc2sc(C)nc12` (single isomer, unassigned) [Compound 202, (S) or (R)-1-(3-Chloro-4-(pyrimidin-2-yl)phenyl)-3-(7-(1-methoxyethyl)-2-methylthiazolo[5,4-b]pyridin-6-yl)urea], the IC50 fell in the range of 1 to 100 nM.
Consider `COC(C)c1c(NC(=O)Nc2ccc(-n3nccn3)c(C(F)F)c2)cnc2sc(C)nc12` (single isomer, unassigned) [Compound 207a, (R) or (S)-1-(3-(Difluoromethyl)-4-(2H-1,2,3-triazol-2-yl)phenyl)-3-(7-(1-methoxyethyl)-2-methylthiazolo[5,4-b]pyridin-6-yl)urea], for which the IC50 lay in the range of 1 to 100 nM.
For the molecule `CCC(c1c(NC(=O)Nc2cnc(-n3nccn3)c(Cl)c2)cnc2sc(C)nc12)N(C)C` (single isomer, unassigned) [Compound 227b, 1-(5-Chloro-6-(2H-1,2,3-triazol-2-yl)pyridin-3-yl)-3-(7-(1-(dimethylamino)propyl)-2-methylthiazolo[5,4-b]pyridin-6-yl)urea], the IC50 is 1 to 100 nM.
The result for `Cc1nc2c(C3CC3)c(NC(=O)Nc3ccnc(C#N)c3)cnc2s1` [Compound 12, 1-(2-Cyanopyridin-4-yl)-3-(7-cyclopropyl-2-methylthiazolo[5,4-b]pyridin-6-yl)urea] reads 501 to 1500 nM; that for `COCC(C)N(C)c1c(NC(=O)Nc2cnc(-n3nccn3)c(Cl)c2)cnc2sc(C)nc12` (stereo not drawn) [Compound 53a, 1-(5-Chloro-6-(2H-1,2,3-triazol-2-yl)pyridin-3-yl)-3-(7-((1-methoxypropan-2-yl)(methyl)amino)-2-methylthiazolo[5,4-b]pyridin-6-yl)urea], 1 to 100 nM.

(Values after patent US20190275012A9, “SUBSTITUTED THIAZOLO-PYRIDINE COMPOUNDS AS MALT1 INHIBITORS” (Lupin Limited, priority 2016, published 2019).)
